PubChem BioAssay AID1919015 (Molecular Pharmacology Branch, DTP, NCI, 2023)
pIC50: −log10 of the molar value.

Tested on: OVCAR-5 complex spheroids with HUVEC/MSC, viability, % test/control
Experiment: Anticancer human tumor OVCAR-5 cell line growth inhibition [AhR];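 also: spheroids exposed to compounds for 7 days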;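 as to viability, T/C: 100% = DMSO vehicle control wells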
Conditions: for pIC50: curve of first compound; for viability, T/C: stronger effect = lower value
Procedure, shortened: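 Complex tumor spheroids co-cultured with HUVEC and human MSC stroma; AhR antagonists tested in combination with standard-of-care and investigational agents. Top concentration at or near clinical Cmax (else 10 microM), half-log dilutions; growth expressed as percent test/control.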

[1] = second compound 0.1 µM, first compound 0.0316 µM
[2] = second compound 0.1 µM, first compound 0.1 µM
[3] = second compound 0.1 µM, first compound 0.316 µM
[4] = second compound 0.1 µM, first compound 1 µM
[5] = second compound 0.1 µM, first compound 3.16 µM
[6] = second compound 0.1 µM, first compound 10 µM
[7] = second compound 0.316 µM, first compound 0.0316 µM
[8] = second compound 0.316 µM, first compound 0.1 µM
[9] = second compound 0.316 µM, first compound 0.316 µM
[10] = second compound 0.316 µM, first compound 1 µM
[11] = second compound 0.316 µM, first compound 3.16 µM
[12] = second compound 0.316 µM, first compound 10 µM
[13] = second compound 1 µM, first compound 0.0316 µM
[14] = second compound 1 µM, first compound 0.1 µM
[15] = second compound 1 µM, first compound 0.316 µM
[16] = second compound 1 µM, first compound 1 µM
[17] = second compound 1 µM, first compound 3.16 µM
[18] = second compound 1 µM, first compound 10 µM
[19] = second compound 3.16 µM, first compound 0.0316 µM
[20] = second compound 3.16 µM, first compound 0.1 µM
[21] = second compound 3.16 µM, first compound 0.316 µM
[22] = second compound 3.16 µM, first compound 1 µM
[23] = second compound 3.16 µM, first compound 3.16 µM
[24] = second compound 3.16 µM, first compound 10 µM
[25] = second compound 10 µM, first compound 0.0316 µM
[26] = second compound 10 µM, first compound 0.1 µM
[27] = second compound 10 µM, first compound 0.316 µM
[28] = second compound 10 µM, first compound 1 µM
[29] = second compound 10 µM, first compound 3.16 µM
[30] = second compound 10 µM, first compound 10 µM

CC1COCCN1c1cc(C2(S(C)(=N)=O)CC2)nc(-c2ccnc3[nH]ccc23)n1 (stereo not given) + CC(CO)NC(=O)c1cc(-c2ccc(Cl)cc2)nn(-c2cnn(C)c2)c1=O
pIC50 (second compound 0.1 µM): 5.04 | pIC50 (second compound 0.316 µM): 5.00 | pIC50 (second compound 1 µM): < 5.00 | pIC50 (second compound 3.16 µM): 5.05 | pIC50 (second compound 10 µM): 5.18 | viability, T/C [1]: 106% | viability, T/C [2]: 105% | viability, T/C [3]: 104% | viability, T/C [4]: 101% | viability, T/C [5]: 80.9% | viability, T/C [6]: 47.1% | viability, T/C [7]: 109% | viability, T/C [8]: 105% | viability, T/C [9]: 107% | viability, T/C [10]: 108% | viability, T/C [11]: 81.6% | viability, T/C [12]: 49.7% | viability, T/C [13]: 116% | viability, T/C [14]: 112% | viability, T/C [15]: 112% | viability, T/C [16]: 109% | viability, T/C [17]: 89.9% | viability, T/C [18]: 53% | viability, T/C [19]: 108% | viability, T/C [20]: 101% | viability, T/C [21]: 100% | viability, T/C [22]: 93.1% | viability, T/C [23]: 77.2% | viability, T/C [24]: 46.7% | viability, T/C [25]: 96.1% | viability, T/C [26]: 97.5% | viability, T/C [27]: 95.4% | viability, T/C [28]: 83.8% | viability, T/C [29]: 61.5% | viability, T/C [30]: 43.7%

COc1ccc([C@@H](O)c2cc(-c3ncnc4cc(N5CCOCC5)ccc34)c(F)cc2Cl)nn1 + CC(CO)NC(=O)c1cc(-c2ccc(Cl)cc2)nn(-c2cnn(C)c2)c1=O
pIC50 (second compound 0.1 µM): 5.59 | pIC50 (second compound 0.316 µM): 5.53 | pIC50 (second compound 1 µM): 5.44 | pIC50 (second compound 3.16 µM): 5.47 | pIC50 (second compound 10 µM): 5.63 | viability, T/C [1]: 101% | viability, T/C [2]: 107% | viability, T/C [3]: 97.6% | viability, T/C [4]: 75% | viability, T/C [5]: 45.3% | viability, T/C [6]: 23.8% | viability, T/C [7]: 105% | viability, T/C [8]: 105% | viability, T/C [9]: 102% | viability, T/C [10]: 80.4% | viability, T/C [11]: 48.6% | viability, T/C [12]: 24.4% | viability, T/C [13]: 114% | viability, T/C [14]: 115% | viability, T/C [15]: 107% | viability, T/C [16]: 87.4% | viability, T/C [17]: 52.9% | viability, T/C [18]: 28.6% | viability, T/C [19]: 99.2% | viability, T/C [20]: 102% | viability, T/C [21]: 87.3% | viability, T/C [22]: 77.5% | viability, T/C [23]: 50.5% | viability, T/C [24]: 27.7% | viability, T/C [25]: 98% | viability, T/C [26]: 96.6% | viability, T/C [27]: 85.4% | viability, T/C [28]: 69% | viability, T/C [29]: 43.3% | viability, T/C [30]: 26.2%

O=C(C=Cn1cnc(-c2cc(C(F)(F)F)cc(C(F)(F)F)c2)n1)NNc1cnccn1 + CC(CO)NC(=O)c1cc(-c2ccc(Cl)cc2)nn(-c2cnn(C)c2)c1=O
pIC50 (second compound 0.1 µM): 5.72 | pIC50 (second compound 0.316 µM): 5.66 | pIC50 (second compound 1 µM): 5.57 | pIC50 (second compound 3.16 µM): 5.69 | pIC50 (second compound 10 µM): 5.78 | viability, T/C (second compound 0.1 µM, first compound 0.00949 µM): 109% | viability, T/C (second compound 0.1 µM, first compound 0.03 µM): 113% | viability, T/C (second compound 0.1 µM, first compound 0.0949 µM): 101% | viability, T/C (second compound 0.1 µM, first compound 0.3 µM): 86.7% | viability, T/C (second compound 0.1 µM, first compound 0.949 µM): 66.4% | viability, T/C (second compound 0.1 µM, first compound 3 µM): 39.6% | viability, T/C (second compound 0.316 µM, first compound 0.00949 µM): 110% | viability, T/C (second compound 0.316 µM, first compound 0.03 µM): 110% | viability, T/C (second compound 0.316 µM, first compound 0.0949 µM): 104% | viability, T/C (second compound 0.316 µM, first compound 0.3 µM): 86% | viability, T/C (second compound 0.316 µM, first compound 0.949 µM): 64% | viability, T/C (second compound 0.316 µM, first compound 3 µM): 44.7% | viability, T/C (second compound 1 µM, first compound 0.00949 µM): 113% | viability, T/C (second compound 1 µM, first compound 0.03 µM): 114% | viability, T/C (second compound 1 µM, first compound 0.0949 µM): 111% | viability, T/C (second compound 1 µM, first compound 0.3 µM): 90.1% | viability, T/C (second compound 1 µM, first compound 0.949 µM): 70.2% | viability, T/C (second compound 1 µM, first compound 3 µM): 47.5% | viability, T/C (second compound 3.16 µM, first compound 0.00949 µM): 101% | viability, T/C (second compound 3.16 µM, first compound 0.03 µM): 112% | viability, T/C (second compound 3.16 µM, first compound 0.0949 µM): 103% | viability, T/C (second compound 3.16 µM, first compound 0.3 µM): 87.5% | viability, T/C (second compound 3.16 µM, first compound 0.949 µM): 69.7% | viability, T/C (second compound 3.16 µM, first compound 3 µM): 40.1% | viability, T/C (second compound 10 µM, first compound 0.00949 µM): 97% | viability, T/C (second compound 10 µM, first compound 0.03 µM): 98.2% | viability, T/C (second compound 10 µM, first compound 0.0949 µM): 97.6% | viability, T/C (second compound 10 µM, first compound 0.3 µM): 83.3% | viability, T/C (second compound 10 µM, first compound 0.949 µM): 65.8% | viability, T/C (second compound 10 µM, first compound 3 µM): 34.2%
